The record followed here is PubChem BioAssay (NCI).

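Test compounds were applied to cells in 96-well plates for 48 hours at 5 doses. The concentration for 50% growth inhibition is given as GI50. TGI: concentration producing complete growth inhibition.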

Holding throughout (assay): NCI anticancer screen, dose series, 48 h
The test system of experiment [1] is MCF7 breast.
The subject of experiment [2] is NCI/ADR-RES ovarian.
For experiment [3], the system named is MDA-MB-435.
Experiment [4] has as its system HS 578T breast.
In experiment [5] the test system is BT-549 breast.
Experiment [6] relates to PC-3 prostate.

Consider `COc1ccc2c(c1)O/C(=C\c1cccc(OCC(=O)Nc3nc(C)c(C)s3)c1)C2=O`, for which the GI50 was 3.17 µM in experiment [1]; 21.3 µM in experiment [2]; 7.29 µM in experiment [3]; 5.24 µM in experiment [4]; 16.7 µM in experiment [5]; 0.821 µM in experiment [6]. For the same compound, the TGI was 50.1 µM in experiment [1]; above 100 µM in experiment [2]; above 100 µM in experiment [3]; above 41.5 µM in experiment [4]; 55.2 µM in experiment [5].
Consider `CCN(CC)c1ccc2nc3ccc(N=Nc4ccc(O)cc4)cc3[n+](-c3ccccc3)c2c1`, for which the GI50 in experiment [1] was 1.9 µM; in experiment [2] it was above 100 µM; in experiment [4] it was 1.88 µM; in experiment [5], 10.5 µM. Moreover, the TGI was 5.11 µM in experiment [1], above 100 µM in experiment [2], above 100 µM in experiment [4] and 31.8 µM in experiment [5].
Regarding `CC(=O)O[C@H](C[C@H](C(C)C)N(C)C(=O)[C@@H](NC(=O)[C@H]1CCCCN1C)C(C)C)c1cccc(C(=O)N[C@@H](Cc2ccccc2)C[C@H](C)C(=O)O)n1`, the GI50 in experiment [1] is 0.00992 µM; in experiment [2], 2.06 µM; in experiment [5], 0.0154 µM; in experiment [6], 0.0321 µM. For the same compound, the TGI in experiment [1] was above 25 µM; in experiment [2], above 10.6 µM; in experiment [5] it was 0.48 µM; in experiment [6], above 25 µM.
Consider `COc1cc(-c2cc3ncccc3c3[nH]c(=O)c4cccnc4c23)cc(OC)c1OC`, for which the GI50 in experiment [1] is 0.394 µM; in experiment [2], 0.482 µM; in experiment [3], 0.181 µM; in experiment [4], 0.914 µM; in experiment [5], 0.427 µM; in experiment [6] it was 0.858 µM. Moreover, the TGI in experiment [1] is above 100 µM; in experiment [2] it was above 100 µM; in experiment [3], above 100 µM; in experiment [4], above 100 µM; in experiment [5] it was 55.2 µM; in experiment [6], above 100 µM.
Regarding `COc1cc(CN(c2ccc(C)cc2)C2OC(=O)c3ccccc32)cc(OC)c1OC` (stereo unspecified), the GI50 in experiment [1] is 0.339 µM; in experiment [2], 0.389 µM; in experiment [4] it was 0.308 µM; in experiment [5], 0.727 µM; in experiment [6], 0.432 µM. In addition, the TGI is above 100 µM in experiment [1]; above 100 µM in experiment [2]; above 100 µM in experiment [4]; 99.3 µM in experiment [5]; above 100 µM in experiment [6].
`C/C(=N\NC(N)=S)c1sc(-n2nc(-c3ccccc3)cc2-c2ccccc2)nc1C`: the TGI in experiment [1], in experiment [2], in experiment [3], in experiment [4], in experiment [5] and in experiment [6] was above 100 µM each time.
`Oc1c(O)c(Cl)c(Cl)c(Cl)c1Cl`: the GI50 in experiment [1] is 3.25 µM; in experiment [2], 3.01 µM; in experiment [3], 3.42 µM; in experiment [4] it was 3.75 µM; in experiment [5] it was 4.51 µM; in experiment [6], 3.43 µM. Also, the TGI in experiment [1] was 16.2 µM; in experiment [2], 10.3 µM; in experiment [3] it was 18.1 µM; in experiment [4], 23 µM; in experiment [5], 31.5 µM; in experiment [6], 18.1 µM.
For the compound `CCOC(=O)C#Cc1c(C(=O)OCC)nnn1[C@@H]1O[C@H](CO)[C@H]2OC3(CCCCC3)O[C@H]21`, the GI50 in experiment [1] was 2.11 µM; in experiment [2], 7.27 µM; in experiment [3], 4.49 µM; in experiment [4], 19.6 µM; in experiment [5] it was 8.66 µM; in experiment [6], 13.5 µM. For the same compound, the TGI in experiment [1] was determined as 6.56 µM; in experiment [2], 29.8 µM; in experiment [3], 16 µM; in experiment [4], 58.3 µM; in experiment [5], 20.8 µM; in experiment [6] it was 26.8 µM.
Regarding `COc1cc(NC(C)CCCNC(C)C)c2ncccc2c1OC` (stereo unspecified), the GI50 in experiment [1] is 29.6 µM; in experiment [2], above 100 µM; in experiment [3], 54.6 µM; in experiment [4], 4.74 µM. For the same compound, the TGI in experiment [1] was above 100 µM; in experiment [2] it was above 100 µM; in experiment [3] it was above 100 µM; in experiment [4] it was 60.7 µM.
On to `CCn1c(=N)sc2nc3ccccc3n2c1=O`, for which the TGI in experiment [1], in experiment [2], in experiment [3], in experiment [4] and in experiment [6] was above 100 µM throughout.
On to `COc1ccc(-c2nc(N)c(C#N)c3c2CCOc2c-3ccc3ccccc23)cc1`, for which the GI50 is 20.2 µM in experiment [1]; 17.5 µM in experiment [2]; 46.6 µM in experiment [3]; 31.8 µM in experiment [4]; 22 µM in experiment [6]. For the same compound, the TGI in experiment [1] was above 100 µM; in experiment [2], 57.8 µM; in experiment [3] it was above 100 µM; in experiment [4], 76.6 µM; in experiment [6] it was above 100 µM.
Consider `COc1cc(Nc2ncnc(Nc3ccc4c(n3)NC(=O)C(C)(C)O4)n2)cc(OC)c1OC`, for which the GI50 in experiment [1] was 1.32 µM; in experiment [3], 2.09 µM; in experiment [4], 0.149 µM; in experiment [6], 1.46 µM. The TGI in experiment [1] was above 100 µM; in experiment [2], above 100 µM; in experiment [3] it was above 100 µM; in experiment [4], 0.66 µM; in experiment [6], above 100 µM.
For `COc1cccc(NC(=O)c2sc3nc4c(cc3c2N)C(O)CCC4)c1` (stereo unspecified), the GI50 was 0.0523 µM in experiment [1]; 0.206 µM in experiment [2]; 0.325 µM in experiment [4]; 0.274 µM in experiment [5]; 0.23 µM in experiment [6]. For the same compound, the TGI in experiment [1] is above 100 µM; in experiment [2] it was above 100 µM; in experiment [4], above 49.9 µM; in experiment [5], above 100 µM; in experiment [6] it was above 100 µM.
On to `CC/C(Cc1ccccc1)=C(/c1ccc(O)cc1)c1ccc(OCCN2CCCC2)cc1`, for which the GI50 in experiment [1] is 0.0211 µM; in experiment [2], 2.1 µM; in experiment [3] it was 1.67 µM; in experiment [4], 1.86 µM; in experiment [6], 1.79 µM. Besides, the TGI was found to be 2.22 µM in experiment [1]; 5.44 µM in experiment [2]; 3.23 µM in experiment [3]; 5.83 µM in experiment [4]; 3.25 µM in experiment [6].
